In one series the test system is CYP3A (hepatic). The series can be described thus: Example 3: IV midazolam probe for CYP3A activity at a range of RTV doses. The settings on record: human, plasma, iv, probe midazolam; for AUC(0-inf): AUCinf (mean); for clearance: CL (mean); for half-life: Half-life (mean). On the procedure:
(§1) The effects of a range of RTV doses (20, 50, 100, and 200 mg once daily) on hepatic cytochrome P450 3A (CYP3A) activity were also evaluated using a CYP3A substrate.
(§2) For MDZ: AUC0-last, AUCinf, % AUCexp, Clast, Tlast, λ, T1/2, CL and Vz.
(§3) The population mean slope was estimated along with a corresponding 90% CI. This study was performed in compliance with the guidelines of Good Clinical Practices (GCPs).

Series [1] deals with hepatic cytochrome P450 3A (CYP3A) activity. The description is as above. On the procedure:
as §1, §2, §3

Series [2] in a line: Example 1: pharmacokinetics of Compound 1 alone and with RTV in healthy subjects. It is filed as in vivo, human. An excerpt: The study was an open-label, fixed-sequence, crossover, pharmacokinetic study with 12 subjects. The subjects were healthy males and non-pregnant, nonlactating females between 18 and 45 years of age, inclusive. The duration of the study was 20 days, with Period 1 of Days 1 to 10 and Period 2 of days 11 to 20. Follow-up contact was on day 27.

For series [3] the following is noted: both, human, in vivo.
The nature of series [4]: Example 3: pharmacokinetics of Compound 1 and RTV at a range of RTV doses. The note with it: RTV in plasma, mean (CV %); for AUC / Cmax / half-life: both, human; for AUC: AUCtau.
Series [5] in a line: Example 5: drug-drug interaction of zidovudine and Compound 1/r. An excerpt:
(§4) Zidovudine is a NRTI used in HIV patients.
(§5) PK parameters were estimated using WinNonlin™ 5.0.1 (Pharsight Corporation, Mountain View, Calif., USA).

The nature of series [6]: Example 5: safety of zidovudine and Compound 1/r. It is filed as in vivo, human.
From the text: as §4, §5

Where [7] appears, read: plasma, oral, Compound 1 125 mg + 20 mg RTV QD.
Setting [8] is: plasma, oral, Compound 1 125 mg + 50 mg RTV QD.
[9] abbreviates: plasma, oral, Compound 1 125 mg + 200 mg RTV QD.

Take `Cc1ncc2n1-c1ccc(Cl)cc1C(c1ccccc1F)=NC2` [MDZ, midazolam]: the AUC(0-inf) with CYP3A (hepatic) (1 mg, MDZ 1 mg IV alone, Day 1) is 31 ng·h/mL; in the series with CYP3A (hepatic) (MDZ 1 mg IV, +20 mg RTV QD (with Compound 1 125 mg)), 101 ng·h/mL; in the series on CYP3A (hepatic) (MDZ 1 mg IV, +50 mg RTV QD (with Compound 1 125 mg)) it was 145 ng·h/mL; in the series with CYP3A (hepatic) (MDZ 1 mg IV, +100 mg RTV QD (with Compound 1 125 mg)) it was 219 ng·h/mL; in the series on CYP3A (hepatic) (MDZ 1 mg IV, +200 mg RTV QD (with Compound 1 125 mg)), 146 ng·h/mL. Besides, the clearance (usually a measure of how efficiently the substance is removed, as volume per time) was 7.45 mL/min/kg in the series on CYP3A (hepatic) (1 mg, MDZ 1 mg IV alone); 2.38 mL/min/kg in the series with CYP3A (hepatic) (MDZ 1 mg IV, +20 mg RTV); 1.5 mL/min/kg in the series with CYP3A (hepatic) (MDZ 1 mg IV, +50 mg RTV); 1.2 mL/min/kg with CYP3A (hepatic) (MDZ 1 mg IV, +100 mg RTV); 1.45 mL/min/kg with CYP3A (hepatic) (MDZ 1 mg IV, +200 mg RTV). Further, the half-life – broadly, the time needed for the level to fall by half in the phase considered – in the series with CYP3A (hepatic) (1 mg, MDZ 1 mg IV alone) is 3.97 h; in the series on CYP3A (hepatic) (MDZ 1 mg IV, +20 mg RTV), 7.83 h; with CYP3A (hepatic) (MDZ 1 mg IV, +50 mg RTV) it was 14.4 h; with CYP3A (hepatic) (MDZ 1 mg IV, +100 mg RTV) it was 22.4 h; in the series on CYP3A (hepatic) (MDZ 1 mg IV, +200 mg RTV), 15.2 h. Besides, the “Clast (mean)” value in series [1] (MDZ 1 mg IV alone) worked out at 0.20 ng/mL; in series [1] (MDZ 1 mg IV, +20 mg RTV), 1.53 ng/mL; in series [1] (MDZ 1 mg IV, +50 mg RTV) it was 2.51 ng/mL; in series [1] (MDZ 1 mg IV, +100 mg RTV), 3.34 ng/mL; in series [1] (MDZ 1 mg IV, +200 mg RTV) it was 2.58 ng/mL.
In the case of `CC(C)c1nc(CN(C)C(=O)N[C@H](C(=O)N[C@@H](Cc2ccccc2)C[C@H](O)[C@H](Cc2ccccc2)NC(=O)OCc2cncs2)C(C)C)cs1` [Ritonavir, (2S,3S,5S)-5-(N-(N-((N-Methyl-N-((2-isopropyl-4-thiazolyl)methyl)amino)-carbonyl)-L-valinyl)amino)-2-(N-((5-thiazolyl)methoxycarbonyl)amino)-1,6-diphenyl-3-hydroxyhexane, reference compound], the half-life in series [2] (both sexes, human, plasma, oral, 100 mg, ritonavir in plasma, Day 11, single dose RTV 100 mg with Compound 1, median) was 5.1 h; in series [4] (setting [7]) it was 4.74 h; in series [4] (setting [8]), 6.54 h; in series [4] (plasma, oral, Compound 1 125 mg + 100 mg RTV QD) it was 6.34 h; in series [4] (setting [9]), 5.71 h. Further, the AUC(0-inf) in series [2] (both sexes, human, plasma, oral, 100 mg, read-out: AUC (AUCinf)) was 4980 ng·h/mL. Also, the area under the curve (AUC) (in general, the area under the concentration-time curve, a measure of exposure) in series [2] (both sexes, human, plasma, oral, ritonavir in plasma, Day 20, RTV 100 mg + Compound 1 100 mg twice daily, mean, read-out: AUC (AUCtau)) was 9400 ng·h/mL; in series [4] (in vivo, Compound 1 125 mg + 100 mg RTV QD), 6550 ng·h/mL; in series [4] (setting [7]), 135 ng·h/mL; in series [4] (setting [8]) it was 1120 ng·h/mL; in series [4] (setting [9]) it was 16000 ng·h/mL. Further, the Ctau is 219.8 ng/mL in series [2] (ritonavir in plasma, Day 11, single dose RTV 100 mg with Compound 1, mean); 544.8 ng/mL in series [2] (ritonavir in plasma, Day 20, RTV 100 mg + Compound 1 100 mg twice daily, mean); 0.718 (98.8) ng/ml in series [4] (Compound 1 125 mg + 20 mg RTV QD); 11.6 (66.2) ng/ml in series [4] (Compound 1 125 mg + 50 mg RTV QD); 53.8 (41.6) ng/ml in series [4] (Compound 1 125 mg + 100 mg RTV QD); 78.5 (36.7) ng/ml in series [4] (Compound 1 125 mg + 200 mg RTV QD). Further, the “Dose proportionality of RTV exposures” value in series [3] is reported as “RTV exposures not dose-proportional, very low exposures at 20 mg with BLQ concentrations (<0.5 ng/ml) by 16 hr in some subjects”. The Cmax – broadly, the highest concentration seen after dosing – in series [4] (setting [7]) was 19.5 ng/mL; in series [4] (setting [8]) it was 130 ng/mL; in series [4] (setting [9]) it was 2460 ng/mL.
Take `Cc1cn([C@H]2C[C@H](N=[N+]=[N-])[C@@H](CO)O2)c(=O)[nH]c1=O` [ZDV, zidovudine]: the “AUCtau, Cmax, Ctau (Compound 1 only) 90% CI of GMR (co-administration: alone)” value in series [5] (Compound 1/r 200/100 mg QD + ZDV 300 mg BID, with a meal, bounds 70% to 143%) is “within predefined PK equivalence bounds”. Besides, the Pharmacokinetic drug-drug interaction result in series [5] (in vivo) is “no clinically relevant pharmacokinetic drug-drug interaction”. In series [6] (Compound 1/r 200/100 mg QD and ZDV 300 mg BID, alone and in combination), the Tolerability result is reported as “generally well tolerated”. Further, in series [6] (zidovudine co-administered with Compound 1/r), the Safety of co-administration entry was “safe and well tolerated”.

The record behind these values is patent publication US20070219243A1, “Method for improving the pharmacokinetics of HIV integrase inhibitors” (priority 2005, published 2007).
